Patent publication EP0473993B1, “Novel peptide derivatives and their pharmaceutical use” (Japan Tobacco Inc., priority 1990, dated 1992)

Assays:
[1] = test system: ICR male mice; test: Anti-chlorpromazine action (locomotor stimulant action); type: in vivo; details: Mus musculus, 2 h; SC; mice given chlorpromazine HCl 5 mg/kg s.c. one hour before; estimated from regression line; read-out: Concentration of test compound necessary for inducing 3000 count of automatism quantity in 2 hours
Protocol: Anti-chlorpromazine action (Locomotor stimulant action)
ICR male mice weighing 35 - 40 g (four animals per group) were subcutaneously administered with chlorpromazine HCl at the dose of 5 mg/kg and immediately set in the automatic locomotor-measuring apparatus (AUTOMEX). One hour later, the test compound dissolved in saline was subcutaneously administered, and the locomotor activity was measured every 15 minutes for 120 minutes. The total locomotor activity during the period of 120 minutes was calculated and the regression line was estimated based on the method of least squares, from which the amount of the test compound necessary for inducing 3000 locomotor-count was estimated (Table 2).

[2] = test system: ICR male mice; test: Anti-reserpine action (antagonistic action against hypothermia); type: in vivo; details: Mus musculus, 2 h; SC; mice given reserpine 5 mg/kg s.c. 3 or 3.5 hours before; estimated from regression line; read-out: Concentration of test compound necessary for raising body temperature by 1°C on the average for 120 minutes
Protocol: Anti-reserpine action (Antagonistic action against hypothermia)
ICR male mice weighing 35 - 40 g were subcutaneously administered with reserpine at the dose of 5 mg/kg. About 2 hours later, each of the mice was held by a mouse-holder, and a body temperature sensor was intrarectally inserted. Thereafter, the body temperature was automatically measured every 10 minutes. The test compound dissolved in saline was subcutaneously administered 3 or 3.5 hours after administration of reserpine. After the administration of the test compound, the body temperature was measured every 10 minutes over the period of 120 minutes. The area below the body temperature line during the period was calculated, from which the regression line was estimated based upon least square method, and estimated was the amount of the test compound necessary for raising the body temperature by 1°C on the average for 120 minutes from that just before the administration of the test compound (Table 1).

| SMILES | ED (3000 locomotor counts) [1] | ED (1 C rise of body temperature) [2] |
| --- | --- | --- |
| CC(C)C[C@H](NC(=O)[C@H]1NC(=O)C[C@H]1C)C(=O)N1CCC[C@H]1C(N)=O [Compound 1A, N-(cis-3-Methylpyroglutamyl)-L-leucyl-L-prolinamide] | 2.63 mg/kg | 0.18 mg/kg |
| NC(=O)[C@@H]1CCCN1C(=O)[C@H](Cc1c[nH]cn1)NC(=O)[C@@H]1CCC(=O)N1 [TRH, L-pyroglutamyl-L-histidyl-L-prolinamide, reference compound] | 6.82 mg/kg | – |
| CSCC[C@H](NC(=O)[C@H]1NC(=O)C[C@H]1C)C(=O)N1CCC[C@H]1C(N)=O [Compound 2A, N-(cis-3-Methylpyroglutamyl)-L-methionyl-L-prolinamide] | 1.64 mg/kg | 0.48 mg/kg |
| CCCC[C@H](NC(=O)[C@H]1NC(=O)C[C@H]1C)C(=O)N1CCC[C@H]1C(N)=O [Compound 5A, N-(cis-3-Methylpyroglutamyl)-L-norleucyl-L-prolinamide] | 16.3 mg/kg | 0.33 mg/kg |
| CCC[C@H](NC(=O)[C@H]1NC(=O)C[C@H]1C)C(=O)N1CCC[C@H]1C(N)=O [Compound 3A, N-(cis-3-Methylpyroglutamyl)-L-norvalyl-L-prolinamide] | – | 0.91 mg/kg |
